Measured values: US20260256780A1, “COMPOSITIONS FOR INDUCING RAS GTP HYDROLYSIS AND USES THEREOF” (Revolution Medicines, Inc., priority 2023, published 2026)

These molecules were tested against T1, GTP-loaded KRAS proteins (residue 1-169 of KRAS4B) (Homo sapiens, UniProt P01116, G12V) (assay: RAS GTP hydrolysis rate assay (GTPase-Glo) with cyclophilin A). Conditions: bound in tri-complex with cyclophilin A; in some embodiments KRAS^G12V is the isoform used.
T1 construct: recombinant KRAS proteins (residue 1-169 of KRAS4B); His6 (TEV protease-cleavable) (cleaved yes); made in house; host or cells: E. coli
Format: biochemical
Method: (§1) The rate of RAS GTP hydrolysis was assayed in the presence of various KRAS mutations. To assess GTP hydrolysis activity, recombinant KRAS proteins (residue 1-169 of KRAS4B) were expressed in E. coli and purified using a TEV protease-cleavable His6-tag and Ni^2+ affinity chromatography. The His6 tag was removed by treatment with TEV protease, and the KRAS protein was isolated by passing through a second Ni^2+ column followed by size exclusion chromatography. The purified KRAS proteins were loaded with GTP by incubation for 2 hours on ice with 2 mM GTP and 10 mM Ethylenediaminetetraacetic Acid, followed by addition of 10 mM MgCl2 and incubation on ice for 1 additional hour. The excess GTP was removed by overnight dialysis against buffer (12.5 mM HEPES, 75 mM NaCl, pH 7.5) at 4° C. The GTP-loaded KRAS protein were flash frozen in liquid nitrogen, then stored at −80° C. until use.
(§2) GTP-loaded KRAS proteins (1 μM) were combined with 25 μM of recombinant human cyclophilin A and 10 μM of compound in reaction buffer (12.5 mM HEPES, 75 mM NaCl, 1 mM MgCl2, 1 mM DTT, 1% DMSO, pH 7.5) pre-warmed to 37° C. At fixed time points, aliquots were removed and quenched by heating to 80° C. to denature the proteins, then centrifuged to pellet the protein precipitate. The supernatant was assessed for GTP levels using Promega GTPase-Glo™ according to manufacturer instructions. The levels of GTP as a function of incubation time were fit to a single phase exponential decay to determine the rate constant for hydrolysis activity.

Compared with CO[C@@H](C)c1ncccc1-c1c2c3cc(ccc3n1CC(F)(F)F)CCN(C)C[C@H](NC(=O)[C@H]1C[C@@H]1C)C(=O)N1CCC[C@H](N1)C(=O)OCC(C)(C)C2 (atropisomer, axis not shown) [compound 9], CCn1c(-c2cc(N3CCN(C)CC3)cnc2[C@H](C)OC)c2c3cc(ccc31)-c1cccc(c1)C[C@H](NC(=O)[C@H]1C[C@@H]1C)C(=O)N1CCC[C@H](N1)C(=O)OCC(C)(C)C2 (atropisomer, axis not shown) [compound 20] is higher in “hydrolyzer class: RAS(ON) GTP hydrolysis rate relative to the intrinsic hydrolysis rate” value: 9 Weak for the first, 20 Weak for the second.

Compared with CCO[C@@H]1c2nc(cs2)-c2ccc3c(c2)c(c(-c2cccnc2[C@H](C)OC)n3CC)CC(C)(C)COC(=O)[C@@H]2CCCN(N2)C(=O)[C@H]1NC(=O)[C@@H]1[C@@H](C)[C@H]1C(=O)N(C)C (atropisomer, axis not shown) [compound 17], CCO[C@@H]1c2nc(cs2)-c2ccc3c(c2)c(c(-c2cc(N4CCN(C)CC4)cnc2[C@H](C)OC)n3CCOC(C)C)CC(C)(C)COC(=O)[C@@H]2CCCN(N2)C(=O)[C@H]1NC(=O)N1CC[C@H]1C (atropisomer, axis not shown) [compound 18] is higher in “hydrolyzer class: RAS(ON) GTP hydrolysis rate relative to the intrinsic hydrolysis rate” value: 17 Weak for the first, 18 Weak for the second.

First: CCn1c(-c2cc(N3CCN(C)CC3)cnc2[C@H](C)OC)c2c3cc(ccc31)-c1cccc(n1)C[C@H](NC(=O)[C@H]1C[C@@H]1C)C(=O)N1CCC[C@H](N1)C(=O)OCC(C)(C)C2 (atropisomer, axis not shown) [compound 21]
Second: CCn1c(-c2cc(N3CCN(C)CC3)cnc2[C@H](C)OC)c2c3cc(ccc31)N1CCO[C@@H](C[C@H](NC(=O)[C@H]3C[C@@H]3C)C(=O)N3CCC[C@H](N3)C(=O)OCC(C)(C)C2)C1 (atropisomer, axis not shown) [compound 22]
The “hydrolyzer class: RAS(ON) GTP hydrolysis rate relative to the intrinsic hydrolysis rate” value of the first is lower: 21 Weak for the first, 22 Weak for the second.

First: CO[C@@H](C)c1ncccc1-c1c2c3cc(ccc3n1CC(F)(F)F)CCOC[C@H](NC(=O)[C@H]1C[C@@H]1C)C(=O)N1CCC[C@H](N1)C(=O)OCC(C)(C)C2 (atropisomer, axis not shown) [compound 10]
Second: CO[C@@H](C)c1ncc(N2CCN(C)CC2)cc1-c1c2c3cc(ccc3n1CC(F)(F)F)-c1csc(n1)C[C@H](NC(=O)[C@H]1C[C@@H]1C)C(=O)N1CCC[C@H](N1)C(=O)OCC(C)(C)C2 (atropisomer, axis not shown) [compound 11]
The “hydrolyzer class: RAS(ON) GTP hydrolysis rate relative to the intrinsic hydrolysis rate” value of the first is lower: 10 Moderate for the first, 11 Moderate for the second.

Compared with CCn1c(-c2cc(N3CCN(C)CC3)cnc2[C@H](C)OC)c2c3cc(ccc31)-c1csc(n1)C[C@H](NC(=O)[C@H]1C[C@@H]1C)C(=O)N1CCC[C@H](N1)C(=O)OCC(C)(C)C2 (atropisomer, axis not shown) [compound 12], CCn1c(-c2cc(N3CCN(C)CC3)cnc2[C@H](C)OC)c2c3cc(ccc31)-c1csc(n1)C[C@H](NC(=O)[C@H](C(C)C)N(C)C(=O)N(C)C)C(=O)N1CCC[C@H](N1)C(=O)OCC(C)(C)C2 (atropisomer, axis not shown) [compound 13] is higher in “hydrolyzer class: RAS(ON) GTP hydrolysis rate relative to the intrinsic hydrolysis rate” value: 12 Moderate for the first, 13 Moderate for the second.

Going from CCn1c(-c2cc(N3CCN(C)CC3)cnc2[C@H](C)OC)c2c3cc(ccc31)-c1csc(n1)C[C@H](NC(=O)[C@H](C(C)C)N(C)C(=O)N1CC(N(C)C)C1)C(=O)N1CCC[C@H](N1)C(=O)OCC(C)(C)C2 (atropisomer, axis not shown) [compound 14] to CCn1c(-c2cccnc2[C@H](C)OC)c2c3cc(ccc31)-c1csc(n1)C[C@H](NC(=O)[C@H](C(C)C)N(C)C(=O)N1CC(OC)C1)C(=O)N1CCC[C@H](N1)C(=O)OCC(C)(C)C2 (atropisomer, axis not shown) [compound 19], the “hydrolyzer class: RAS(ON) GTP hydrolysis rate relative to the intrinsic hydrolysis rate” value rises from 14 Moderate to 19 Moderate.

First: CCO[C@@H]1c2nc(cs2)-c2ccc3c(c2)c(c(-c2cc(N4CCN(C)CC4)cnc2[C@H](C)OC)n3CC)CC(C)(C)COC(=O)[C@@H]2CCCN(N2)C(=O)[C@H]1NC(=O)[C@H]1[C@H](C)[C@@H]1C (atropisomer, axis not shown) [compound 15]
Second: CCO[C@@H]1c2nc(cs2)-c2ccc3c(c2)c(c(-c2cc([C@@H]4CCN5CCOC[C@@H]5C4)cnc2[C@H](C)OC)n3CC)CC(C)(C)COC(=O)[C@@H]2CCCN(N2)C(=O)[C@H]1NC(=O)[C@H]1[C@H](C)[C@@H]1C (atropisomer, axis not shown) [compound 16]
The “hydrolyzer class: RAS(ON) GTP hydrolysis rate relative to the intrinsic hydrolysis rate” value of the first is lower: 15 Moderate for the first, 16 Moderate for the second.

What follows are molecules tested on GTP-loaded KRAS proteins (residue 1-169 of KRAS4B) in the same assay as above. Conditions: 10 μM compound, 25 μM cyclophilin A, 37° C.
Format: biochemical
Method: as §1, §2

With CCn1c(-c2cccnc2[C@H](C)OC)c2c3cc(ccc31)-c1cc(O)cc(c1)C[C@H](NC(=O)[C@H](C(C)C)N(C)C(=O)C1(C#N)CC1)C(=O)N1CCC[C@H](N1)C(=O)OCC(C)(C)C2 (racemic) [Compound F, reference compound] the “RAS GTP hydrolysis activation” value was “does not activate GTP hydrolysis”.
